Measurements reported in patent US20100061982A1, “3-SUBSTITUTED-1H-INDOLE, 3-SUBSTITUTED-1H-PYRROLO[2,3-B]PYRIDINE AND 3-SUBSTITUTED-1H-PYRROLO[3,2-B]PYRIDINE COMPOUNDS, THEIR USE AS MTOR KINASE AND PI3 KINASE INHIBITORS, AND THEIR SYNTHESES” (priority 2008, published 2010).
Values after ≈ are worked out from the molar mass of the structure shown.

Legend:
[1] = Microsome Stability (15 min), rat; assay type: in vitro ADME; conditions: microsomes
[2] = CACO2 permeability a-b/b-a; assay type: in vitro ADME; conditions: human, Caco-2; for Papp A→B: a − b (first value of cell), read-out: CACO2 Pe a − b; for Papp B→A: b − a (second value of cell), read-out: CACO2 Pe b − a
[3] = Buffer Stability (37° C.)
[4] = Microsome Stability (15 min), nude mouse; assay type: in vitro ADME; conditions: nude, mouse, microsomes
[5] = PAMPA permeability pH 7.4
mTOR = mTOR (Homo sapiens, UniProt P42345); test: mTOR Enzyme Assay (DELFIA, purified enzyme); assay type: biochemical; design: FLAG; conditions: read-out: mTOR Mean IC50
[6] = Microsome Stability (15 min), human; assay type: in vitro ADME; conditions: microsomes
[7] = In vivo blood/plasma and tumor levels of prodrug and metabolites after 50 mg, kg po; conditions: 50 mg
Solubility pH 7.4 = conditions: pH 7.4, aqueous buffer
PI3K alpha = PI3K alpha (Homo sapiens, UniProt P42336); test: PI3K-alpha Fluorescence Polarization Assay; assay type: biochemical; conditions: read-out: PI3K alpha Mean IC50
Sequence of PI3K alpha (P42336 whole entry, species assumed): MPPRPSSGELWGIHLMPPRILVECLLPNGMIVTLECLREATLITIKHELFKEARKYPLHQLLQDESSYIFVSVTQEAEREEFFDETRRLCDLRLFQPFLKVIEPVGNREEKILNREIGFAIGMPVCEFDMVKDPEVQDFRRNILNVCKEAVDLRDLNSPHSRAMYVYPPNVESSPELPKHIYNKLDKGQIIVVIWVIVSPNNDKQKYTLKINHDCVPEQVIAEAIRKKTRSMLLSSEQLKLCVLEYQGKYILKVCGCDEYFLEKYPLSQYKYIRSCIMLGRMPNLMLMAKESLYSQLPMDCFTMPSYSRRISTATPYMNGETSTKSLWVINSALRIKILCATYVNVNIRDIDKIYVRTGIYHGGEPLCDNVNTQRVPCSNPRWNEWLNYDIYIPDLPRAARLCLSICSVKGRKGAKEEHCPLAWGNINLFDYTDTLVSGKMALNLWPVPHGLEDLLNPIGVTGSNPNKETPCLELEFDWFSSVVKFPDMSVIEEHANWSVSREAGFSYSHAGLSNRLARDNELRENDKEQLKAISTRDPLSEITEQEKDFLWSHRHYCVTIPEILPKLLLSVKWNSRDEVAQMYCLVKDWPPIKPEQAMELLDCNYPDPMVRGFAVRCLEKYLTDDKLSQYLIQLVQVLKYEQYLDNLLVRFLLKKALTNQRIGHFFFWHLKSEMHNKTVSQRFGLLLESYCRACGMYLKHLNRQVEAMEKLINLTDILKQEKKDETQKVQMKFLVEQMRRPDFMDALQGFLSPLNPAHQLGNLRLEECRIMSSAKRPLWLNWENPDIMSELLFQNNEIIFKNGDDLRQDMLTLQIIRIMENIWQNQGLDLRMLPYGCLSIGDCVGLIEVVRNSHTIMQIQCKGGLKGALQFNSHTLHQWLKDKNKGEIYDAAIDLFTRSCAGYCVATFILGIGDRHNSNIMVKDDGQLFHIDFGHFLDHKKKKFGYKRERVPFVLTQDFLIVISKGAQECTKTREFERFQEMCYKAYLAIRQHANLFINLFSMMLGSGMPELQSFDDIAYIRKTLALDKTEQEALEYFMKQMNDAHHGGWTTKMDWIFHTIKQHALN
Sequence of PI3K alpha (P27986 whole entry partner, species assumed): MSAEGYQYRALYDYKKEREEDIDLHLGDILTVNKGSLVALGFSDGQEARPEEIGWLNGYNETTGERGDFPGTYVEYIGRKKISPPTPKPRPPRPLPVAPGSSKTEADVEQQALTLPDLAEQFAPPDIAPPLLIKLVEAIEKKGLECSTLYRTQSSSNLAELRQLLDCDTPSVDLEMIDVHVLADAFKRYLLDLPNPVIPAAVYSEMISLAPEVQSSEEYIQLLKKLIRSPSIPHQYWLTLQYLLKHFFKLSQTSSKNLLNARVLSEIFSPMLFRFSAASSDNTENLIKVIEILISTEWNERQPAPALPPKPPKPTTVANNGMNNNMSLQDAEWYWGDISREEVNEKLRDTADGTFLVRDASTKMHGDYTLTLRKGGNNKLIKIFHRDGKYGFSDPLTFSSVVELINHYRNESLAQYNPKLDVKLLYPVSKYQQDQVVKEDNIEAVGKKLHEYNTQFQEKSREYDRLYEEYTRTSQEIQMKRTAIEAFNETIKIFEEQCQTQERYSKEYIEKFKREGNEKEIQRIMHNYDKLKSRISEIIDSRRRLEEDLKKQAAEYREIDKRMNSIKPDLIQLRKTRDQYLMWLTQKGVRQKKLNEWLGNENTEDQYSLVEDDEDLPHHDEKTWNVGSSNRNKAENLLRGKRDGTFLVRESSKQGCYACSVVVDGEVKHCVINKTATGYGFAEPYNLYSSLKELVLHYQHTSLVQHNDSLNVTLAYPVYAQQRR

[8] = Plasma Stability (37° C.), rat
[9] = Plasma Stability (37° C.), nude mouse
[10] = Phase I (NADPH), read-out: Microsome Stability (15 min) T ½ Phase I rat
[11] = value after the slash in Table VIc, read-out: Microsome Stability (15 min) T ½ rat, second value of cell
[12] = Phase I (NADPH), read-out: Microsome Stability (15 min) T ½ Phase I nude mouse
[13] = value after the slash in Table VIc, read-out: Microsome Stability (15 min) T ½ nude mouse, second value of cell
[14] = Phase I (NADPH), read-out: Microsome Stability (15 min) T ½ Phase I human
[15] = value after the slash in Table VIc, read-out: Microsome Stability (15 min) T ½ human, second value of cell

half-life [1, 10] | half-life [1, 11] | Buffer Stability (37° C.) % Remaining (at 16-23 hours) SGF [3] | Buffer Stability (37° C.) % Remaining (at 16-23 hours) SIF [3] | Buffer Stability (37° C.) % Remaining (at 16-23 hours) pH 1 [3] | Buffer Stability (37° C.) % Remaining (at 16-23 hours) pH 4.5 [3] | Buffer Stability (37° C.) % Remaining (at 16-23 hours) pH 6.6 [3] | Buffer Stability (37° C.) % Remaining (at 16-23 hours) pH 7.4 [3] | Buffer Stability (37° C.) % Remaining (at 16-23 hours) pH 9 [3] | half-life [4, 12] | half-life [4, 13] | PAMPA Pe [5] | IC50 (mTOR) | half-life [6, 14] | half-life [6, 15] | solubility (Solubility pH 7.4) | IC50 (PI3K alpha) | Plasma Stability (37° C.) % Remaining (3-3.5 hours) rat [8] | Plasma Stability (37° C.) % Remaining (3-3.5 hours) nude mouse [9] | Compound | also measured
> 30 min | 5 min | 95% | 77% | 97% | 96% | 83% | 68% | 72% | 29 min | 5 min | 0 10e−6 cm/s | 80 nM | 24 min | 5 min | – | – | – | – | COc1ccc2[nH]c(-c3ccccc3)c(C=C3Oc4cc(O)cc(O)c4C3=O)c2c1 [4,6-dihydroxy-2-[(5-methoxy-2-phenyl-1H-indol-3-yl)methylene]-1-benzofuran-3(2H)-one] | Papp A→B [2]: 1.25 ×10⁻⁶ cm/s; Papp B→A [2]: 6.65 ×10⁻⁶ cm/s; plasma prodrug, Dosed @ 50 mg, kg po (precursor phenolic compound dosed) ([7]; 1 h conc.): bql, bql*; plasma prodrug, Dosed @ 50 mg, kg po (precursor phenolic compound dosed) ([7]; 4 h conc.): bql, bql*
21 min | 6 min | 99% | 63% | 99% | 78% | 63% | 66% | 79% | > 30 min | 25 min | 0 10e−6 cm/s | 22.5 nM | 11 min | 17 min | 32 µg/mL (≈ 69 µM) | – | – | – | COc1ccc2c(c1)c(/C=C1\Oc3cc(O)cc(O)c3C1=O)c(C)n2CCN1CCN(C)CC1 [(2Z)-4,6-dihydroxy-2-({5-methoxy-2-methyl-1-[2-(4-methylpiperazin-1-yl)ethyl]-1H-indol-3-yl}methylene)-1-benzofuran-3(2H)-one] | –
12 min | 8 min | – | – | – | – | – | – | – | 26 min | 20 min | 0.01 10e−6 cm/s | 325 nM | 6 min | 5 min | 68 µg/mL (≈ 152 µM) | 12.2 nM | – | – | COc1ccc2c(c1)c(/C=C1\Oc3cc(O)ccc3C1=O)c(C)n2CCN1CCN(C)CC1 [(2Z)-6-hydroxy-2-({5-methoxy-2-methyl-1-[2-(4-methylpiperazin-1-yl)ethyl]-1H-indol-3-yl}methylene)-1-benzofuran-3(2H)-one] | –
18 min | 4 min | 93% | 97% | 97% | 98% | 98% | 98% | 99% | 19 min | 4 min | 0.18 10e−6 cm/s | – | 15 min | 3 min | – | 1.3 nM | 111% | 83% | COc1ccc2[nH]c(-c3ccccc3)c(/C=C3\Oc4cc(O)ccc4C3=O)c2c1 [(2Z)-6-hydroxy-2-[(5-methoxy-2-phenyl-1H-indol-3-yl)methylene]-1-benzofuran-3(2H)-one] | Papp A→B [2]: 0.03 ×10⁻⁶ cm/s; Papp B→A [2]: 0.11 ×10⁻⁶ cm/s; plasma prodrug, Dosed @ 50 mg, kg po (precursor phenolic compound dosed) ([7]; first value, time not stated in Table VIIb): bql, bql; plasma prodrug, Dosed @ 50 mg, kg po (precursor phenolic compound dosed) ([7]; second value, time not stated in Table VIIb): bql, bql
> 30 min | – | 66% | 0% | 2% | 64% | 0% | 0% | 0% | 9 min | – | 0 10e−6 cm/s | – | 12 min | – | – | 2 nM | 42% | 34% | COc1ccc2[nH]c(-c3ccccc3)c(/C=C3\Oc4cc(OC(C)=O)cc(OC(C)=O)c4C3=O)c2c1 [Example 3, (2Z)-2-[(5-methoxy-2-phenyl-1H-indol-3-yl)methylene]-3-oxo-2,3-dihydro-1-benzofuran-4,6-diyl diacetate] | –
< 1 min | – | 94% | 0% | 95% | 82% | 63% | 14% | 0% | 3 min | – | 0 10e−6 cm/s | – | 3 min | – | 3 µg/mL (≈ 5.17 µM) | > 9750 nM | 0% | 16% | COc1ccc2c(c1)c(/C=C1\Oc3cc(OC(=O)OC(C)C)cc(OC(=O)OC(C)C)c3C1=O)cn2CCCN(C)C [Example 5, (2Z)-2-({1-[3-(dimethylamino)propyl]-5-methoxy-1H-indol-3-yl}methylene)-3-oxo-2,3-dihydro-1-benzofuran-4,6-diyl diisopropyl biscarbonate] | –
3 min | – | 93% | 0% | 94% | 91% | 59% | 16% | 0% | > 30 min | – | 0 10e−6 cm/s | – | 5 min | – | – | 896 nM | 0% | 22% | COc1ccc2[nH]c(-c3ccccc3)c(/C=C3\Oc4cc(OC(=O)OC(C)C)cc(OC(=O)OC(C)C)c4C3=O)c2c1 [Example 7, diisopropyl (2Z)-2-[(5-methoxy-2-phenyl-1H-indol-3-yl)methylene]-3-oxo-2,3-dihydro-1-benzofuran-4,6-diyl biscarbonate] | –
4 min | – | 77% | 0% | 73% | 66% | 46% | 0% | 0% | 6 min | – | 0 10e−6 cm/s | – | 6 min | – | 1 µg/mL (≈ 1.73 µM) | > 10000 nM | 0% | 8% | COc1ccc2c(c1)c(/C=C1\Oc3cc(OC(=O)CC(C)C)cc(OC(=O)CC(C)C)c3C1=O)cn2CCCN(C)C [Example 9, (2Z)-2-({1-[3-(dimethylamino)propyl]-5-methoxy-1H-indol-3-yl}methylene)-3-oxo-2,3-dihydro-1-benzofuran-4,6-diyl bis(3-methylbutanoate)] | –
12 min | – | 95% | 0% | 86% | 92% | 72% | 44% | 0% | – | – | 0 10e−6 cm/s | – | 19 min | – | 2 µg/mL (≈ 3.52 µM) | 2780 nM | 6% | 0% | COc1ccc2[nH]c(-c3ccccc3)c(/C=C3\Oc4cc(OC(=O)C(C)(C)C)cc(OC(=O)C(C)(C)C)c4C3=O)c2c1 [Example 10, (2Z)-2-[(5-methoxy-2-phenyl-1H-indol-3-yl)methylene]-3-oxo-2,3-dihydro-1-benzofuran-4,6-diyl bis(2,2-dimethylpropanoate)] | –
